Here are results for two molecules from ChEMBL document CHEMBL1129579, “Carbohydrates in an acidic multivalent assembly: nanomolar P-selectin inhibitors” (J Med Chem, 1996).

This test deals with T1, P-selectin (Homo sapiens, UniProt P16109).
T1 sequence (P16109 whole entry): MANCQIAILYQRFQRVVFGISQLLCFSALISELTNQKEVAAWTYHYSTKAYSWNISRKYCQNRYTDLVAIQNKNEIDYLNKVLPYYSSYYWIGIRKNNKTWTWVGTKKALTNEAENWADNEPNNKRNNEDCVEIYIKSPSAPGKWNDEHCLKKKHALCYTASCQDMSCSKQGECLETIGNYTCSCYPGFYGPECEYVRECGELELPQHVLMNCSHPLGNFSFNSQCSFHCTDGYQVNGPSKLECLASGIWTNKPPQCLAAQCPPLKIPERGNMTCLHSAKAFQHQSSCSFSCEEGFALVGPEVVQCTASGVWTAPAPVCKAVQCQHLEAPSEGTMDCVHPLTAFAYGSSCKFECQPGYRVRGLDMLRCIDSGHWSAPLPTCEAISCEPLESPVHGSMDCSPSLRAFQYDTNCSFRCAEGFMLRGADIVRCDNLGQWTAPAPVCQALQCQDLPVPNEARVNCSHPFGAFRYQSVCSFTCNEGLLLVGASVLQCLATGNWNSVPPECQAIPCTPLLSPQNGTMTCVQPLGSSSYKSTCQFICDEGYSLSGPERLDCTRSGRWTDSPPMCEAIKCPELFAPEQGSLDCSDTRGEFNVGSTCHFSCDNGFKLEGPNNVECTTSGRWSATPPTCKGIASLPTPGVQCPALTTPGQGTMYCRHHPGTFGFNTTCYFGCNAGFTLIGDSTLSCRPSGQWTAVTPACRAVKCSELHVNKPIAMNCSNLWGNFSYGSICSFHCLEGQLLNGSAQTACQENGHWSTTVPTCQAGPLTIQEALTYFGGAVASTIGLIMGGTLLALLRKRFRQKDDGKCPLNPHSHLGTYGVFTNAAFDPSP
Nature of the test: Inhibitory activity against Selectin P IgG chimera binding to HL-60 cells, by binding to Selectin P. It counts as cell-based.

A word on the IC50: it is the point on the concentration scale where inhibition reaches its midpoint. In turn, `CCCCCCCCCCCCC#CC#CCCCCCCCCC(=O)NCCSCCCN(C(C)=O)[C@@H]1O[C@@H](CO)[C@@H](O[C@@H]2O[C@@H](CO)[C@H](O)[C@H](OCC(=O)O)[C@@H]2O)[C@H](O[C@@H]2O[C@@H](C)[C@@H](O)[C@H](O)[C@@H]2O)[C@@H]1O` displayed an IC50 of 2 nM. In other words, the single-digit nanomolar range.

In turn, `CCCCCCCCCCCCC#CC#CCCCCCCCCC(=O)NCCO` yielded an IC50 of 500 nM.
